Experimental data as given in patent US7118895B2, “Process for producing aglycon by using diglycosidase and flavor-improved food containing the aglycon and converting agent to be used in the process” (Amano Enzyme Inc., priority 2000, dated 2006).

Assays:
Crude diglycosidase = experiment: Examination of substrate concentration in the conversion into isoflavone aglycons by diglycosidase using soybean materials; assay type: biochemical, Penicillium multicolor IAM7153;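 also: percent of the isoflavone family total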
Outline: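 Reaction at 55° C, shaken, pH 4.0 (20 mM acetate), using crude diglycosidase from a 1.88 AU/mL enzyme solution on soy flour, soymilk, defatted soybean or soy protein concentrate at 2, 5, 10, 20 or 30% (w/v). Isoflavone aglycons quantified by HPLC of ethanol extracts at 0, 1, 3, 6 h.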

[1] = system: β-Xylosidase derived from pectinase G; experiment: Reactivity toward various isoflavone glycosides (HPLC); assay type: biochemical; set-up: unit not given here; conditions: 55 °C, pH 4.0
Outline: (§1)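 Aglycone liberation was measured by reversed-phase HPLC (260 nm, calibration-curve quantitation) after ethanol extraction at 0, 1, 3 and 6 h. Reactions ran at 55° C, pH 4.0 (20 mM acetate), with each glycoside (from 2 mM methanol stock) and 0.75 AU/mL enzyme solution.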

[2] = system: β-Glucosidase derived from almond; experiment: as above; assay type: biochemical; set-up: unit not given here; conditions: 55 °C, pH 4.0
Outline: as §1

O=c1c(-c2ccc(O)cc2)coc2cc(O[C@@H]3O[C@H](CO)[C@@H](O)[C@H](O)[C@H]3O)cc(O)c12 [genistin]
Decomposition efficiency: ratio of each glycoside/aglycon within its isoflavone family (Crude diglycosidase; concentrated soybean protein, substrate concentration 2%, heat treatment of enzyme no, reaction time 0 h): 50.5% | Decomposition efficiency: ratio of each glycoside/aglycon within its isoflavone family (Crude diglycosidase; concentrated soybean protein, substrate concentration 2%, heat treatment of enzyme no, reaction time 1 h): 1.2% | Decomposition efficiency: ratio of each glycoside/aglycon within its isoflavone family (Crude diglycosidase; concentrated soybean protein, substrate concentration 2%, heat treatment of enzyme no, reaction time 3 h): not detected | Decomposition efficiency: ratio of each glycoside/aglycon within its isoflavone family (Crude diglycosidase; concentrated soybean protein, substrate concentration 2%, heat treatment of enzyme no, reaction time 6 h): not detected | Decomposition efficiency: ratio of each glycoside/aglycon within its isoflavone family (Crude diglycosidase; concentrated soybean protein, substrate concentration 2%, heat treatment of enzyme yes, reaction time 6 h): 51.6% | Decomposition efficiency: ratio of each glycoside/aglycon within its isoflavone family (Crude diglycosidase; concentrated soybean protein, substrate concentration 5%, heat treatment of enzyme no, reaction time 0 h): 51.2% | Decomposition efficiency: ratio of each glycoside/aglycon within its isoflavone family (Crude diglycosidase; concentrated soybean protein, substrate concentration 5%, heat treatment of enzyme no, reaction time 1 h): not detected | Decomposition efficiency: ratio of each glycoside/aglycon within its isoflavone family (Crude diglycosidase; concentrated soybean protein, substrate concentration 5%, heat treatment of enzyme no, reaction time 3 h): not detected | Decomposition efficiency: ratio of each glycoside/aglycon within its isoflavone family (Crude diglycosidase; concentrated soybean protein, substrate concentration 5%, heat treatment of enzyme no, reaction time 6 h): not detected | Decomposition efficiency: ratio of each glycoside/aglycon within its isoflavone family (Crude diglycosidase; concentrated soybean protein, substrate concentration 5%, heat treatment of enzyme yes, reaction time 6 h): 52.2% | Decomposition efficiency: ratio of each glycoside/aglycon within its isoflavone family (Crude diglycosidase; concentrated soybean protein, substrate concentration 10%, heat treatment of enzyme no, reaction time 0 h): 50.6% | Decomposition efficiency: ratio of each glycoside/aglycon within its isoflavone family (Crude diglycosidase; concentrated soybean protein, substrate concentration 10%, heat treatment of enzyme no, reaction time 1 h): 1.3% | Decomposition efficiency: ratio of each glycoside/aglycon within its isoflavone family (Crude diglycosidase; concentrated soybean protein, substrate concentration 10%, heat treatment of enzyme no, reaction time 3 h): not detected | Decomposition efficiency: ratio of each glycoside/aglycon within its isoflavone family (Crude diglycosidase; concentrated soybean protein, substrate concentration 10%, heat treatment of enzyme no, reaction time 6 h): not detected | Decomposition efficiency: ratio of each glycoside/aglycon within its isoflavone family (Crude diglycosidase; concentrated soybean protein, substrate concentration 10%, heat treatment of enzyme yes, reaction time 6 h): 50.9% | Decomposition efficiency: ratio of each glycoside/aglycon within its isoflavone family (Crude diglycosidase; concentrated soybean protein, substrate concentration 20%, heat treatment of enzyme no, reaction time 0 h): 50.4% | Decomposition efficiency: ratio of each glycoside/aglycon within its isoflavone family (Crude diglycosidase; concentrated soybean protein, substrate concentration 20%, heat treatment of enzyme no, reaction time 1 h): 6.0% | Decomposition efficiency: ratio of each glycoside/aglycon within its isoflavone family (Crude diglycosidase; concentrated soybean protein, substrate concentration 20%, heat treatment of enzyme no, reaction time 3 h): not detected | Decomposition efficiency: ratio of each glycoside/aglycon within its isoflavone family (Crude diglycosidase; concentrated soybean protein, substrate concentration 20%, heat treatment of enzyme no, reaction time 6 h): not detected | Decomposition efficiency: ratio of each glycoside/aglycon within its isoflavone family (Crude diglycosidase; concentrated soybean protein, substrate concentration 20%, heat treatment of enzyme yes, reaction time 6 h): 50.8% | Decomposition efficiency: ratio of each glycoside/aglycon within its isoflavone family (Crude diglycosidase; concentrated soybean protein, substrate concentration 30%, heat treatment of enzyme no, reaction time 0 h): 54.6% | Decomposition efficiency: ratio of each glycoside/aglycon within its isoflavone family (Crude diglycosidase; concentrated soybean protein, substrate concentration 30%, heat treatment of enzyme no, reaction time 1 h): 2.8% | Decomposition efficiency: ratio of each glycoside/aglycon within its isoflavone family (Crude diglycosidase; concentrated soybean protein, substrate concentration 30%, heat treatment of enzyme no, reaction time 3 h): not detected | Decomposition efficiency: ratio of each glycoside/aglycon within its isoflavone family (Crude diglycosidase; concentrated soybean protein, substrate concentration 30%, heat treatment of enzyme no, reaction time 6 h): not detected | Decomposition efficiency: ratio of each glycoside/aglycon within its isoflavone family (Crude diglycosidase; concentrated soybean protein, substrate concentration 30%, heat treatment of enzyme yes, reaction time 6 h): 55.6% | Decomposition efficiency: ratio of each glycoside/aglycon within its isoflavone family (Crude diglycosidase; roasted soy flour, substrate concentration 2%, heat treatment of enzyme no, reaction time 0 h): 33.2% | Decomposition efficiency: ratio of each glycoside/aglycon within its isoflavone family (Crude diglycosidase; roasted soy flour, substrate concentration 2%, heat treatment of enzyme no, reaction time 1 h): not detected | Decomposition efficiency: ratio of each glycoside/aglycon within its isoflavone family (Crude diglycosidase; roasted soy flour, substrate concentration 2%, heat treatment of enzyme no, reaction time 3 h): not detected | Decomposition efficiency: ratio of each glycoside/aglycon within its isoflavone family (Crude diglycosidase; roasted soy flour, substrate concentration 2%, heat treatment of enzyme no, reaction time 6 h): not detected | Decomposition efficiency: ratio of each glycoside/aglycon within its isoflavone family (Crude diglycosidase; roasted soy flour, substrate concentration 2%, heat treatment of enzyme yes, reaction time 6 h): 48.4% | Decomposition efficiency: ratio of each glycoside/aglycon within its isoflavone family (Crude diglycosidase; roasted soy flour, substrate concentration 5%, heat treatment of enzyme no, reaction time 0 h): 47.8% | Decomposition efficiency: ratio of each glycoside/aglycon within its isoflavone family (Crude diglycosidase; roasted soy flour, substrate concentration 5%, heat treatment of enzyme no, reaction time 1 h): not detected | Decomposition efficiency: ratio of each glycoside/aglycon within its isoflavone family (Crude diglycosidase; roasted soy flour, substrate concentration 5%, heat treatment of enzyme no, reaction time 3 h): not detected | Decomposition efficiency: ratio of each glycoside/aglycon within its isoflavone family (Crude diglycosidase; roasted soy flour, substrate concentration 5%, heat treatment of enzyme no, reaction time 6 h): not detected | Decomposition efficiency: ratio of each glycoside/aglycon within its isoflavone family (Crude diglycosidase; roasted soy flour, substrate concentration 5%, heat treatment of enzyme yes, reaction time 6 h): 47.8% | Decomposition efficiency: ratio of each glycoside/aglycon within its isoflavone family (Crude diglycosidase; roasted soy flour, substrate concentration 10%, heat treatment of enzyme no, reaction time 0 h): 59.5% | Decomposition efficiency: ratio of each glycoside/aglycon within its isoflavone family (Crude diglycosidase; roasted soy flour, substrate concentration 10%, heat treatment of enzyme no, reaction time 1 h): not detected | Decomposition efficiency: ratio of each glycoside/aglycon within its isoflavone family (Crude diglycosidase; roasted soy flour, substrate concentration 10%, heat treatment of enzyme no, reaction time 3 h): not detected | Decomposition efficiency: ratio of each glycoside/aglycon within its isoflavone family (Crude diglycosidase; roasted soy flour, substrate concentration 10%, heat treatment of enzyme no, reaction time 6 h): not detected | Decomposition efficiency: ratio of each glycoside/aglycon within its isoflavone family (Crude diglycosidase; roasted soy flour, substrate concentration 10%, heat treatment of enzyme yes, reaction time 6 h): 49.5% | Decomposition efficiency: ratio of each glycoside/aglycon within its isoflavone family (Crude diglycosidase; roasted soy flour, substrate concentration 20%, heat treatment of enzyme no, reaction time 0 h): 50.5% | Decomposition efficiency: ratio of each glycoside/aglycon within its isoflavone family (Crude diglycosidase; roasted soy flour, substrate concentration 20%, heat treatment of enzyme no, reaction time 1 h): not detected | Decomposition efficiency: ratio of each glycoside/aglycon within its isoflavone family (Crude diglycosidase; roasted soy flour, substrate concentration 20%, heat treatment of enzyme no, reaction time 3 h): not detected | Decomposition efficiency: ratio of each glycoside/aglycon within its isoflavone family (Crude diglycosidase; roasted soy flour, substrate concentration 20%, heat treatment of enzyme no, reaction time 6 h): not detected | Decomposition efficiency: ratio of each glycoside/aglycon within its isoflavone family (Crude diglycosidase; roasted soy flour, substrate concentration 20%, heat treatment of enzyme yes, reaction time 6 h): 49.5% | Decomposition efficiency: ratio of each glycoside/aglycon within its isoflavone family (Crude diglycosidase; roasted soy flour, substrate concentration 30%, heat treatment of enzyme no, reaction time 0 h): 49.4% | Decomposition efficiency: ratio of each glycoside/aglycon within its isoflavone family (Crude diglycosidase; roasted soy flour, substrate concentration 30%, heat treatment of enzyme no, reaction time 1 h): 5.7% | Decomposition efficiency: ratio of each glycoside/aglycon within its isoflavone family (Crude diglycosidase; roasted soy flour, substrate concentration 30%, heat treatment of enzyme no, reaction time 3 h): 9.6% | Decomposition efficiency: ratio of each glycoside/aglycon within its isoflavone family (Crude diglycosidase; roasted soy flour, substrate concentration 30%, heat treatment of enzyme no, reaction time 6 h): 2.0% | Decomposition efficiency: ratio of each glycoside/aglycon within its isoflavone family (Crude diglycosidase; roasted soy flour, substrate concentration 30%, heat treatment of enzyme yes, reaction time 6 h): 50.1% | Decomposition efficiency: ratio of each glycoside/aglycon within its isoflavone family (Crude diglycosidase; soymilk, substrate concentration 2%, heat treatment of enzyme no, reaction time 0 h): 54.5% | Decomposition efficiency: ratio of each glycoside/aglycon within its isoflavone family (Crude diglycosidase; soymilk, substrate concentration 2%, heat treatment of enzyme no, reaction time 1 h): not detected | Decomposition efficiency: ratio of each glycoside/aglycon within its isoflavone family (Crude diglycosidase; soymilk, substrate concentration 2%, heat treatment of enzyme no, reaction time 3 h): not detected | Decomposition efficiency: ratio of each glycoside/aglycon within its isoflavone family (Crude diglycosidase; soymilk, substrate concentration 2%, heat treatment of enzyme no, reaction time 6 h): not detected | Decomposition efficiency: ratio of each glycoside/aglycon within its isoflavone family (Crude diglycosidase; soymilk, substrate concentration 2%, heat treatment of enzyme yes, reaction time 6 h): 38.0% | Decomposition efficiency: ratio of each glycoside/aglycon within its isoflavone family (Crude diglycosidase; soymilk, substrate concentration 5%, heat treatment of enzyme no, reaction time 0 h): 31.5% | Decomposition efficiency: ratio of each glycoside/aglycon within its isoflavone family (Crude diglycosidase; soymilk, substrate concentration 5%, heat treatment of enzyme no, reaction time 1 h): not detected | Decomposition efficiency: ratio of each glycoside/aglycon within its isoflavone family (Crude diglycosidase; soymilk, substrate concentration 5%, heat treatment of enzyme no, reaction time 3 h): not detected | Decomposition efficiency: ratio of each glycoside/aglycon within its isoflavone family (Crude diglycosidase; soymilk, substrate concentration 5%, heat treatment of enzyme no, reaction time 6 h): not detected | Decomposition efficiency: ratio of each glycoside/aglycon within its isoflavone family (Crude diglycosidase; soymilk, substrate concentration 5%, heat treatment of enzyme yes, reaction time 6 h): 37.9% | Decomposition efficiency: ratio of each glycoside/aglycon within its isoflavone family (Crude diglycosidase; soymilk, substrate concentration 10%, heat treatment of enzyme no, reaction time 0 h): 32.9% | Decomposition efficiency: ratio of each glycoside/aglycon within its isoflavone family (Crude diglycosidase; soymilk, substrate concentration 10%, heat treatment of enzyme no, reaction time 1 h): not detected | Decomposition efficiency: ratio of each glycoside/aglycon within its isoflavone family (Crude diglycosidase; soymilk, substrate concentration 10%, heat treatment of enzyme no, reaction time 3 h): not detected | Decomposition efficiency: ratio of each glycoside/aglycon within its isoflavone family (Crude diglycosidase; soymilk, substrate concentration 10%, heat treatment of enzyme no, reaction time 6 h): not detected | Decomposition efficiency: ratio of each glycoside/aglycon within its isoflavone family (Crude diglycosidase; soymilk, substrate concentration 10%, heat treatment of enzyme yes, reaction time 6 h): 37.6% | Decomposition efficiency: ratio of each glycoside/aglycon within its isoflavone family (Crude diglycosidase; soymilk, substrate concentration 20%, heat treatment of enzyme no, reaction time 0 h): 33.3% | Decomposition efficiency: ratio of each glycoside/aglycon within its isoflavone family (Crude diglycosidase; soymilk, substrate concentration 20%, heat treatment of enzyme no, reaction time 1 h): not detected | Decomposition efficiency: ratio of each glycoside/aglycon within its isoflavone family (Crude diglycosidase; soymilk, substrate concentration 20%, heat treatment of enzyme no, reaction time 3 h): not detected | Decomposition efficiency: ratio of each glycoside/aglycon within its isoflavone family (Crude diglycosidase; soymilk, substrate concentration 20%, heat treatment of enzyme no, reaction time 6 h): not detected | Decomposition efficiency: ratio of each glycoside/aglycon within its isoflavone family (Crude diglycosidase; soymilk, substrate concentration 20%, heat treatment of enzyme yes, reaction time 6 h): 38.6% | Decomposition efficiency: ratio of each glycoside/aglycon within its isoflavone family (Crude diglycosidase; soymilk, substrate concentration 30%, heat treatment of enzyme no, reaction time 0 h): 33.6% | Decomposition efficiency: ratio of each glycoside/aglycon within its isoflavone family (Crude diglycosidase; soymilk, substrate concentration 30%, heat treatment of enzyme no, reaction time 1 h): not detected | Decomposition efficiency: ratio of each glycoside/aglycon within its isoflavone family (Crude diglycosidase; soymilk, substrate concentration 30%, heat treatment of enzyme no, reaction time 3 h): not detected | Decomposition efficiency: ratio of each glycoside/aglycon within its isoflavone family (Crude diglycosidase; soymilk, substrate concentration 30%, heat treatment of enzyme no, reaction time 6 h): not detected | Decomposition efficiency: ratio of each glycoside/aglycon within its isoflavone family (Crude diglycosidase; soymilk, substrate concentration 30%, heat treatment of enzyme yes, reaction time 6 h): 38.6% | aglycon ([1]; Reaction time 0 h): 0 | glucoside ([1]; Reaction time 0 h): 100 | aglycon ([1]; Reaction time 1 h): 1.5 | glucoside ([1]; Reaction time 1 h): 98.5 | aglycon ([1]; Reaction time 3 h): 1.8 | glucoside ([1]; Reaction time 3 h): 98.2 | aglycon ([1]; Reaction time 6 h): 1.8 | glucoside ([1]; Reaction time 6 h): 98.2 | aglycon ([2]; Reaction time 0 h): 0 | glucoside ([2]; Reaction time 0 h): 100 | aglycon ([2]; Reaction time 1 h): 9.4 | glucoside ([2]; Reaction time 1 h): 90.6 | aglycon ([2]; Reaction time 3 h): 11.4 | glucoside ([2]; Reaction time 3 h): 88.6 | aglycon ([2]; Reaction time 6 h): 11.8 | glucoside ([2]; Reaction time 6 h): 88.2
